Test results as given in ChEMBL document CHEMBL1201862, “PubChem BioAssay data set” (2004).
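A five-concentration, 48-hour dose response in 96-well plates underlies each endpoint, interpolated linearly between surrounding concentrations. GI50: concentration for 50% inhibition of growth.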 Active and inactive are the calls of the source. Cut-off read from the data, not from the text of the source: active = GI50 up to about 1.1 µM and inactive = higher.

Assays:
Test in all cases: growth of human tumour cells (NCI), 48 h
Malme-3M = tested on: Malme-3M
KM12 = tested on: KM12
OVCAR-3 = tested on: OVCAR-3
U-251 = tested on: U-251
HOP-62 = tested on: HOP-62
M14 = tested on: M14
MDA-MB-435 = tested on: MDA-MB-435
A498 = tested on: A498
BT-549 = tested on: BT-549
NCI-H23 = tested on: NCI-H23
CAKI-1 = tested on: CAKI-1
MDA-N = tested on: MDA-N
SF-268 = tested on: SF-268
OVCAR-8 = tested on: OVCAR-8
SF-295 = tested on: SF-295
TK-10 = tested on: TK-10
RXF 393 = tested on: RXF 393
MDA-MB-231 = tested on: MDA-MB-231
MCF7 = tested on: MCF7
SK-MEL-5 = tested on: SK-MEL-5
UACC-257 = tested on: UACC-257
SNB-19 = tested on: SNB-19
MOLT-4 = tested on: MOLT-4
NCI-H522 = tested on: NCI-H522
HCT-15 = tested on: HCT-15
NCI-H460 = tested on: NCI-H460
A549 = tested on: A549
ACHN = tested on: ACHN
786-0 = tested on: 786-0
UO-31 = tested on: UO-31
NCI-H226 = tested on: NCI-H226
UACC-62 = tested on: UACC-62
HCC 2998 = tested on: HCC 2998
EKVX = tested on: EKVX
IGROV-1 = tested on: IGROV-1
SK-OV-3 = tested on: SK-OV-3
SNB-75 = tested on: SNB-75
CCRF-CEM = tested on: CCRF-CEM
COLO 205 = tested on: COLO 205
LOX IMVI = tested on: LOX IMVI
K562 = tested on: K562
RPMI-8226 = tested on: RPMI-8226
NCI/ADR-RES = tested on: NCI/ADR-RES
OVCAR-4 = tested on: OVCAR-4
DU-145 = tested on: DU-145
HOP-92 = tested on: HOP-92
SF-539 = tested on: SF-539
SK-MEL-28 = tested on: SK-MEL-28
HCT-116 = tested on: HCT-116
OVCAR-5 = tested on: OVCAR-5
SN12C = tested on: SN12C
HL-60 = tested on: HL-60
SK-MEL-2 = tested on: SK-MEL-2
HT-29 = tested on: HT-29
PC-3 = tested on: PC-3
SW-620 = tested on: SW-620
Hs-578T = tested on: Hs-578T
SR = tested on: SR

Structure (SMILES): CCCCCCSCC/C(C)=N\OC
- GI50 (Malme-3M): > 100 µM (inactive)
- GI50 (KM12): > 100 µM (inactive)
- GI50 (OVCAR-3): > 100 µM (inactive)
- GI50 (U-251): > 100 µM (inactive)
- GI50 (HOP-62): > 100 µM (inactive)
- GI50 (M14): > 100 µM (inactive)
- GI50 (MDA-MB-435): > 100 µM (inactive)
- GI50 (A498): > 100 µM (inactive)
- GI50 (BT-549): > 100 µM (inactive)
- GI50 (NCI-H23): > 100 µM (inactive)
- GI50 (CAKI-1): > 100 µM (inactive)
- GI50 (MDA-N): > 100 µM (inactive)
- GI50 (SF-268): > 100 µM (inactive)
- GI50 (OVCAR-8): > 100 µM (inactive)
- GI50 (SF-295): > 100 µM (inactive)
- GI50 (TK-10): > 100 µM (inactive)
- GI50 (RXF 393): > 100 µM (inactive)
- GI50 (MDA-MB-231): > 100 µM (inactive)
- GI50 (MCF7): > 100 µM (inactive)
- GI50 (SK-MEL-5): > 100 µM (inactive)
- GI50 (UACC-257): > 100 µM (inactive)
- GI50 (SNB-19): > 100 µM (inactive)
- GI50 (MOLT-4): > 100 µM (inactive)
- GI50 (NCI-H522): > 100 µM (inactive)
- GI50 (HCT-15): > 100 µM
- GI50 (NCI-H460): > 100 µM (inactive)
- GI50 (A549): > 100 µM (inactive)
- GI50 (ACHN): > 100 µM (inactive)
- GI50 (786-0): > 100 µM (inactive)
- GI50 (UO-31): > 100 µM (inactive)
- GI50 (NCI-H226): > 100 µM (inactive)
- GI50 (UACC-62): > 100 µM (inactive)
- GI50 (HCC 2998): > 100 µM (inactive)
- GI50 (EKVX): > 100 µM (inactive)
- GI50 (IGROV-1): > 100 µM (inactive)
- GI50 (SK-OV-3): > 100 µM (inactive)
- GI50 (SNB-75): > 100 µM (inactive)
- GI50 (CCRF-CEM): > 100 µM (inactive)
- GI50 (COLO 205): > 100 µM (inactive)
- GI50 (LOX IMVI): > 100 µM (inactive)
- GI50 (K562): > 100 µM (inactive)
- GI50 (RPMI-8226): > 100 µM (inactive)
- GI50 (NCI/ADR-RES): > 100 µM (inactive)
- GI50 (OVCAR-4): > 100 µM (inactive)
- GI50 (DU-145): > 100 µM (inactive)
- GI50 (HOP-92): > 100 µM (inactive)
- GI50 (SF-539): > 100 µM (inactive)
- GI50 (SK-MEL-28): > 100 µM (inactive)
- GI50 (HCT-116): > 100 µM (inactive)
- GI50 (OVCAR-5): > 100 µM (inactive)
- GI50 (SN12C): > 100 µM (inactive)
- GI50 (HL-60): 45.3 µM (inactive)
- GI50 (SK-MEL-2): > 100 µM (inactive)
- GI50 (HT-29): > 100 µM (inactive)
- GI50 (PC-3): > 100 µM (inactive)
- GI50 (SW-620): > 100 µM (inactive)

Structure (SMILES): COc1ccccc1Cn1[nH]c(=O)c2cc([N+](=O)[O-])ccc21
- GI50 (Malme-3M): > 100 µM (inactive)
- GI50 (KM12): > 100 µM (inactive)
- GI50 (OVCAR-3): 27.9 µM (inactive)
- GI50 (Hs-578T): 23.7 µM (inactive)
- GI50 (HOP-62): > 100 µM (inactive)
- GI50 (M14): > 100 µM (inactive)
- GI50 (MDA-MB-435): 43.9 µM (inactive)
- GI50 (A498): 26.5 µM (inactive)
- GI50 (NCI-H23): > 100 µM (inactive)
- GI50 (CAKI-1): > 100 µM (inactive)
- GI50 (MDA-N): 47.8 µM (inactive)
- GI50 (SF-268): 48.5 µM (inactive)
- GI50 (OVCAR-8): > 100 µM (inactive)
- GI50 (TK-10): > 100 µM (inactive)
- GI50 (RXF 393): 25.8 µM (inactive)
- GI50 (MDA-MB-231): 64.4 µM (inactive)
- GI50 (SK-MEL-5): > 100 µM (inactive)
- GI50 (UACC-257): > 100 µM (inactive)
- GI50 (SNB-19): 61.2 µM (inactive)
- GI50 (MOLT-4): > 100 µM (inactive)
- GI50 (NCI-H522): > 100 µM (inactive)
- GI50 (HCT-15): > 100 µM
- GI50 (NCI-H460): > 100 µM (inactive)
- GI50 (A549): 93.1 µM (inactive)
- GI50 (ACHN): 75 µM (inactive)
- GI50 (786-0): 42 µM (inactive)
- GI50 (UO-31): > 100 µM (inactive)
- GI50 (NCI-H226): > 100 µM (inactive)
- GI50 (UACC-62): 76 µM (inactive)
- GI50 (HCC 2998): 65.9 µM (inactive)
- GI50 (EKVX): > 100 µM (inactive)
- GI50 (IGROV-1): 43.5 µM (inactive)
- GI50 (SNB-75): 25.8 µM (inactive)
- GI50 (CCRF-CEM): > 100 µM (inactive)
- GI50 (COLO 205): > 100 µM (inactive)
- GI50 (LOX IMVI): > 100 µM (inactive)
- GI50 (K562): 51.6 µM (inactive)
- GI50 (RPMI-8226): > 100 µM (inactive)
- GI50 (NCI/ADR-RES): 75.5 µM (inactive)
- GI50 (OVCAR-4): > 100 µM (inactive)
- GI50 (DU-145): > 100 µM (inactive)
- GI50 (HOP-92): 24.7 µM (inactive)
- GI50 (SF-539): > 100 µM (inactive)
- GI50 (SR): > 100 µM (inactive)
- GI50 (SK-MEL-28): > 100 µM (inactive)
- GI50 (HCT-116): > 100 µM (inactive)
- GI50 (OVCAR-5): > 100 µM (inactive)
- GI50 (SN12C): > 100 µM (inactive)
- GI50 (HL-60): 86.5 µM (inactive)
- GI50 (SK-MEL-2): 24.4 µM (inactive)
- GI50 (HT-29): > 100 µM (inactive)
- GI50 (SW-620): 84.9 µM (inactive)

Structure (SMILES): Nc1nc2ccc(OCC(O)CN3CCCCC3)cc2[n+]([O-])n1 (stereo not drawn)
- GI50 (Malme-3M): > 100 µM (inactive)
- GI50 (KM12): > 100 µM (inactive)
- GI50 (OVCAR-3): > 100 µM (inactive)
- GI50 (U-251): > 100 µM (inactive)
- GI50 (M14): > 100 µM (inactive)
- GI50 (MDA-MB-435): > 100 µM (inactive)
- GI50 (A498): > 100 µM (inactive)
- GI50 (BT-549): > 100 µM (inactive)
- GI50 (NCI-H23): > 100 µM (inactive)
- GI50 (CAKI-1): > 100 µM (inactive)
- GI50 (MDA-N): > 100 µM (inactive)
- GI50 (OVCAR-8): > 100 µM (inactive)
- GI50 (SF-295): > 100 µM (inactive)
- GI50 (TK-10): > 100 µM (inactive)
- GI50 (RXF 393): > 100 µM (inactive)
- GI50 (MDA-MB-231): > 100 µM (inactive)
- GI50 (MCF7): > 100 µM (inactive)
- GI50 (SK-MEL-5): > 100 µM (inactive)
- GI50 (UACC-257): > 100 µM (inactive)
- GI50 (SNB-19): > 100 µM (inactive)
- GI50 (MOLT-4): > 100 µM (inactive)
- GI50 (NCI-H522): > 100 µM (inactive)
- GI50 (HCT-15): > 100 µM
- GI50 (NCI-H460): > 100 µM (inactive)
- GI50 (A549): > 100 µM (inactive)
- GI50 (ACHN): > 100 µM (inactive)
- GI50 (786-0): > 100 µM (inactive)
- GI50 (UO-31): > 100 µM (inactive)
- GI50 (NCI-H226): > 100 µM (inactive)
- GI50 (HCC 2998): > 100 µM (inactive)
- GI50 (SNB-75): 70.3 µM (inactive)
- GI50 (CCRF-CEM): > 100 µM (inactive)
- GI50 (COLO 205): > 100 µM (inactive)
- GI50 (K562): > 100 µM (inactive)
- GI50 (RPMI-8226): > 100 µM (inactive)
- GI50 (NCI/ADR-RES): > 100 µM (inactive)
- GI50 (OVCAR-4): > 100 µM (inactive)
- GI50 (DU-145): > 100 µM (inactive)
- GI50 (HOP-92): > 100 µM (inactive)
- GI50 (SF-539): > 100 µM (inactive)
- GI50 (SR): > 100 µM (inactive)
- GI50 (SK-MEL-28): > 100 µM (inactive)
- GI50 (HCT-116): > 100 µM (inactive)
- GI50 (OVCAR-5): > 100 µM (inactive)
- GI50 (SN12C): > 100 µM (inactive)
- GI50 (HL-60): > 100 µM (inactive)
- GI50 (SK-MEL-2): > 100 µM (inactive)
- GI50 (HT-29): > 100 µM (inactive)
- GI50 (PC-3): > 100 µM (inactive)
- GI50 (SW-620): > 100 µM (inactive)
